Data taken from patent US20260364057A1, “AMIDE COMPOUND, AND COMPOSITION AND USE THEREOF” (SIMCERE ZAIMING PHARMACEUTICAL CO., LTD., priority 2022, published 2026).

Target: T1, Human KIF18A (1-376aa) (Homo sapiens, UniProt Q8NI77)
T1 construct: Human KIF18A (1-376aa) protease used in the experiments; purchased Shanghai Panchao Biotechnology Co., Ltd
T1 sequence (Q8NI77 1-376): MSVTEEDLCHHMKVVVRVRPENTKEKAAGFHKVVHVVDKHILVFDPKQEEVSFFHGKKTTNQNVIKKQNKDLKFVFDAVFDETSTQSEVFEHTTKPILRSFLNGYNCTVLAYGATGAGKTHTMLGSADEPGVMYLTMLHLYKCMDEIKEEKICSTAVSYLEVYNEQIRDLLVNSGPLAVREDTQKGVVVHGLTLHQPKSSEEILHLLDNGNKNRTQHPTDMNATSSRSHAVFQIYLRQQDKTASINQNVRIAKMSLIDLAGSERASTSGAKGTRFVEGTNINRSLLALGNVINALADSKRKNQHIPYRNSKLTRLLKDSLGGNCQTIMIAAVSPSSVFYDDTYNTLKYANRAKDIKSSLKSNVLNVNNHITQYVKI
Test: KIF18A enzyme activity assay (ADP-Glo)
Format: biochemical
Details: microtubule 50 μg/mL, ATP (Km 70 μM), room temperature, 15 min, read-out: KIF18A inhibitory activity IC50
Experimental: Test Example 1: KIF18A Enzyme Activity Assay
Based on the ADP-Glo™ Kinase Assay, the ADP amount generated in the reaction was detected to reflect the enzyme activity of KIF18A.
Human KIF18A (1-376aa) […] used in the experiments, expressed by Shanghai Panchao Biotechnology Co., Ltd., was stored at −80 °C (no more than 5 freeze-thaw cycles).
The assay kit (ADP-Glo™ Kinase Assay) was purchased from Promega (Cat. No. V9101) and stored at −30 °C. The kit detects the enzyme activity by measuring ADP generated in enzyme reaction. The KIF18A enzyme and ATP generate ADP. The remaining ATP in this reaction is consumed by the ADP-Glo reagent, while the ADP generated by the KIF18A enzyme reaction is converted back to ATP by the assay reagent. The ATP then reacts with luciferin in the presence of Ultra-Glo™ luciferase, producing luminescence. The luminescent signal is positively correlated with the activity of the KIF18A enzyme.
Compounds were each subjected to 3-fold serial dilution starting from 10 μM to obtain 10 concentration points. The compounds and pure DMSO (control) were pipetted into wells of a 384-well plate using an Echo instrument, and the total volume of compound and DMSO was 100 nL; sample concentrations of gradient dilution were obtained by the instrument based on different ratios. Preparation of a KIF18A enzyme reaction buffer: […], 10 mM MgCl2, 0.01% Pluronic F-68, 1 μM Taxol, and 50 μg/mL Microtubule. KIF18A and the enzyme reaction buffer were mixed, and then the mixed solution was added to the 384-well plate and incubated at room temperature for 15 min. ATP (Km 70 μM) was then added to the mixed solution, and the mixed solution was incubated at room temperature for 15 min. 10 μL of ADP-Glo™ Reagent was well mixed with 10 μL of the mixed solution, and the mixture was incubated at room temperature for 40 min. Finally, 20 μL of ADP-Glo™ Detection Reagent was added, and the mixture was incubated at room temperature for 30 min. The chemiluminescent signal in each well was measured using an Envision plate reader (PerkinElmer, emission wavelength: 400-700 nm). In the experiment, 1 column of wells with no compound and no enzyme (chemiluminescence value was taken as [RLU]background) and 1 column of wells with enzyme but no compound (chemiluminescence value was taken as [RLU]enzyme) were provided. The chemiluminescence value of the compound adding group was taken as [RLU]cpd. The inhibition rate of the compound on […] was calculated according to the following equation: inhibition rate (%)=([RLU]enzyme−[RLU]cpd)/([RLU]enzyme−[RLU]background)×100%, and the inhibitory activity IC50 value of the compound on the enzyme activity was calculated using a four-parameter Logistic Model method. In the following equation, x represents the logarithmic form of the concentration of compound, and f (x) represents an effect value (inhibition rate of enzyme activity at the concentration): F(x)=(A+((B−A)/(1+((C/x)^D)))). A. B, C, and D are four parameters.

SMILES: Cn1c(N2CCC(F)(F)CC2)nc(NC(=O)c2ccc(NS(=O)(=O)CCO)cc2N2CCC3(CC2)CC3)cc1=O [Compound 2]
- IC50: < 200 nM

SMILES: Cc1nc2c(NC(=O)c3ccc(NS(=O)(=O)CCO)cc3N3CCC4(CC3)CC4)cccn2n1 [Compound 3]
- IC50: < 200 nM

SMILES: O=C(Nc1cccc2c1ccn2C1CCC1)c1ccc(NS(=O)(=O)CCO)cc1N1CCC2(CC1)CC2 [Compound 4]
- IC50: < 200 nM

SMILES: O=C(Nc1ccnc2c1ccn2CCC(F)(F)F)c1ccc(NS(=O)(=O)CCO)cc1N1CCC2(CC1)CC2 [Compound 5]
- IC50: < 200 nM

SMILES: CC(C)n1ccc2c(NC(=O)c3ccc(NS(=O)(=O)CCO)cc3N3CCC4(CC3)CC4)ccnc21 [Compound 6]
- IC50: < 200 nM

SMILES: Cc1ccnc2c(NC(=O)c3ccc(NS(=O)(=O)CCO)cc3N3CCC4(CC3)CC4)ccnc12 [Compound 7]
- IC50: < 200 nM

SMILES: O=C(Nc1cccc2c1oc1ccccc12)c1ccc(NS(=O)(=O)CCO)cc1N1CCC2(CC1)CC2 [Compound 8]
- IC50: < 200 nM

SMILES: Cc1nc2c(NC(=O)c3ccc(NS(=O)(=O)CCO)cc3N3CCC4(CC3)CC4)cccn2c1C [Compound 9]
- IC50: < 200 nM

SMILES: O=C(Nc1ccnc2c1OCC1CCCCN21)c1ccc(NS(=O)(=O)CCO)cc1N1CCC2(CC1)CC2 (stereo not drawn) [Compound 10]
- IC50: < 200 nM

SMILES: O=C(Nc1cc2nccn2c(OCCC(F)(F)F)n1)c1ccc(NS(=O)(=O)CCO)cc1N1CCC2(CC1)CC2 [Compound 13]
- IC50: < 200 nM

SMILES: Cn1ccc2ccc(NC(=O)c3ccc(NS(=O)(=O)CCO)cc3N3CCC4(CC3)CC4)nc21 [Compound 15]
- IC50: < 200 nM

SMILES: CN1CCc2ccc(NC(=O)c3ccc(NS(=O)(=O)CCO)cc3N3CCC4(CC3)CC4)nc21 [Compound 16]
- IC50: < 200 nM

SMILES: Cc1cc(NC(=O)c2ccc(NS(=O)(=O)CCO)cc2N2CCC3(CC2)CC3)c2nc3c(n2c1)CCCC3 [Compound 18]
- IC50: < 200 nM

SMILES: CN1CCOc2ccc(NC(=O)c3ccc(NS(=O)(=O)CCO)cc3N3CCC4(CC3)CC4)nc21 [Compound 19]
- IC50: < 200 nM

SMILES: O=C(Nc1cc2nccn2c(N2CCC3(CC2)CC3)n1)c1ccc(NS(=O)(=O)CCO)cc1N1CCC2(CC1)CC2 [Compound 20]
- IC50: < 200 nM

SMILES: O=C(Nc1cccc2c1nc1n2CCC1)c1ccc(NS(=O)(=O)CCO)cc1N1CCC2(CC1)CC2 [Compound 23]
- IC50: < 200 nM

SMILES: O=C(Nc1cccc2c1nc1n2CC(F)(F)CC1)c1ccc(NS(=O)(=O)CCO)cc1N1CCC2(CC1)CC2 [Compound 25]
- IC50: < 200 nM

SMILES: O=C(Nc1ccc2cc3n(c2n1)CCCC3)c1ccc(NS(=O)(=O)CCO)cc1N1CCC2(CC1)CC2 [Compound 26]
- IC50: < 200 nM

SMILES: C=Cc1cc2c(NC(=O)c3ccc(NS(=O)(=O)CCO)cc3N3CCC4(CC3)CC4)ccnc2n1C [Compound 27]
- IC50: < 200 nM

SMILES: Cc1cnc2c(NC(=O)c3ccc(NS(=O)(=O)CCO)cc3N3CCC4(CC3)CC4)snc2c1 [Compound 32]
- IC50: < 200 nM

SMILES: O=C(Nc1ccc(F)c2c1nc1n2CCCC1)c1ccc(NS(=O)(=O)CCO)cc1N1CCC2(CC1)CC2 [Compound 33]
- IC50: < 200 nM

SMILES: O=C(Nc1ccnc2c1nc1n2CCCC1)c1ccc(NS(=O)(=O)CCO)cc1N1CCC2(CC1)CC2 [Compound 36]
- IC50: < 200 nM

SMILES: O=C(Nc1cncc2c1nc1n2CCCC1)c1ccc(NS(=O)(=O)CCO)cc1N1CCC2(CC1)CC2 [Compound 43]
- IC50: < 500 nM

SMILES: O=C(Nc1cccc2c1nc1n2C2CC(C1)C2)c1ccc(NS(=O)(=O)CCO)cc1N1CCC2(CC1)CC2 [Compound 46]
- IC50: < 200 nM

SMILES: O=C(Nc1snc2cc3c(nc12)CCCC3)c1ccc(NS(=O)(=O)CCO)cc1N1CCC2(CC1)CC2 [Compound 52]
- IC50: < 200 nM

SMILES: CC(C)c1cnc2c(NC(=O)c3ccc(NS(=O)(=O)CCO)cc3N3CCC4(CC3)CC4)snc2c1 [Compound 57]
- IC50: < 200 nM

SMILES: COC1Cc2nc3c(NC(=O)c4ccc(NS(=O)(=O)CCO)cc4N4CCC5(CC4)CC5)cccc3n2C1 (stereo not drawn) [Compound 62]
- IC50: < 200 nM

SMILES: COC1CCn2c1nc1c(NC(=O)c3ccc(NS(=O)(=O)CCO)cc3N3CCC4(CC3)CC4)cccc12 (stereo not drawn) [Compound 63]
- IC50: < 200 nM

SMILES: O=C(Nc1cc2c(c(N3CCC(F)(F)CC3)n1)CCC2)c1ccc(NS(=O)(=O)CCO)cc1N1CCC2(CC1)CC2 [Compound 66]
- IC50: < 500 nM

SMILES: O=C(Nc1cccc2c1nc1n2C2CC2CC1)c1ccc(NS(=O)(=O)CCO)cc1N1CCC2(CC1)CC2 (stereo not drawn) [Compound 69]
- IC50: < 200 nM

SMILES: O=C(Nc1ccc(=O)n(C2=CCC(F)(F)CC2)n1)c1ccc(NS(=O)(=O)CCO)cc1N1CCC2(CC1)CC2 [Compound 75]
- IC50: < 200 nM

SMILES: Cc1cc(NC(=O)c2ccc(NS(=O)(=O)CCO)cc2N2CCC3(CC2)CC3)c2nc3n(c2n1)CCCCC3 [Compound 79]
- IC50: < 200 nM

SMILES: O=C(Nc1cccc2c1nc1n2CC2(CC2)C1)c1ccc(NS(=O)(=O)CCO)cc1N1CCC2(CC1)CC2 [Compound 84]
- IC50: < 500 nM

SMILES: O=C(Nc1cccc2c1nc1n2CCC12CC2)c1ccc(NS(=O)(=O)CCO)cc1N1CCC2(CC1)CC2 [Compound 85]
- IC50: < 500 nM

SMILES: CN1CCn2c(nc3c(NC(=O)c4ccc(NS(=O)(=O)CCO)cc4N4CCC5(CC4)CC5)cccc32)C1 [Compound 89]
- IC50: < 500 nM

SMILES: O=C(Nc1cccc2c1nc1n2C2CC2C1)c1ccc(NS(=O)(=O)CCO)cc1N1CCC2(CC1)CC2 (stereo not drawn) [Compound 90]
- IC50: < 200 nM

SMILES: O=C(Nc1cccc2c1nc1n2CCC2(CC2)C1)c1ccc(NS(=O)(=O)CCO)cc1N1CCC2(CC1)CC2 [Compound 91]
- IC50: < 200 nM

SMILES: O=C(Nc1cn(C2CC2)c(=O)c(N2CCC(F)(F)CC2)n1)c1ccc(NS(=O)(=O)CCO)cc1N1CCC2(CC1)CC2 [Compound 93]
- IC50: < 200 nM

SMILES: CC1(C)C2Cn3c(nc4c(NC(=O)c5ccc(NS(=O)(=O)CCO)cc5N5CCC6(CC5)CC6)cccc43)C21 (stereo not drawn) [Compound 95]
- IC50: < 200 nM
